The structures appear in SMILES notation.

The subject of this assay is HepG2. Nature of the assay: Hepatoprotective activity in human HepG2 cells assessed as inhibition of H2O2- induced oxidative damage after 3 hrs by leucocrstal violet dye treated 1 hr before H2O2 challenge. Type of assay: functional, cell-based.
What is called EC50 is the concentration needed to bring the measured effect to its halfway point. For `C=C1CC=C[C@]2(C)C[C@]3(O)OC(=O)C(C)C3=C[C@@H]12` (some centres undefined) [HYDROXYLINDESTENOLIDE], the EC50 amounted to 42.4 µM.

`CC1=CC[C@@H](O)[C@]2(C)CC3(O)OC(=O)C(C)=C3[C@H](O)[C@@H]12` (some centres undefined) [LINDERAGALACTONE E]: the EC50 came out at 67.5 µM.

For the compound `C/C1=C\CCC2=C[C@@H](OC2=O)c2c(C)coc2C1` [LINDERALACTONE], the half-maximal effective concentration (EC50) came out at 98 µM.

For the compound `C/C1=C\CC[C@]23O[C@H]2[C@@H](OC3=O)c2c(C)coc2C1` [LINDERANE], the EC50 worked out at 167 µM.

The values above are taken from ChEMBL document CHEMBL1153810, “Sesquiterpene lactones from the root tubers of Lindera aggregata” (J Nat Prod, 2009).
